Reference: patent US5641779A, “Selective ligands of 5-HT1D -5-HT1B receptors derived from indolepiperazine which are useful medicaments” (Pierre Fabre Medicament, priority 1992, dated 1997)
Structures can show the parent of a compound that is named as a salt.

Experiments:
5-HT1D = experiment: Affinity for 5-HT1D receptors (3H-5-HT binding, sheep caudate nuclei membranes); conditions: Ratio of the IC50 values for the 5HT1A and 5HT1D receptors
Protocol: This study is carried out according to the technique described by Herrick-Davis and Titeler (J. Neurochem. 50, 1624-1631, 1988).
Preparation of the membranes:
Sheep brains are removed at the local abattoir and transported in ice. The caudate nuclei are removed, weighed and homogenized with a Polytron for 20 sec. (speed 6-7) in 20 volumes of Tris-HCl 50 mM, pH 7.7. The homogenate is centrifuged for 10 min at 48,000 g with an L5 50E centrifuge (Beckman).
The pellet, taken up in 20 volumes of Tris-HCl 50 mM, pH 7.7, is placed in a water bath at 37° C. for 10 min and then recentrifuged for 10 min at 48,000 g. The pellet then obtained is immediately frozen in fractions containing 0.5 g of tissue.
The pellet is defrosted and homogenized with a Dounce in 80 volumes of Tris-HCl, 50 mM pH 7.7 containing 4 mM CaCl2, 10μM of pargyline and 0.1% of ascorbic acid.
Binding is carried out at 25° C. by incubating for 30 min:
0.1 ml of buffer or 10 μM, as final concentration, of sumatriptan, in order to obtain the non-specific binding, or the product which forms part of this invention at various concentrations (between 10^-10 and 10^-6 M).
0.8 ml of membrane suspension
0.1 ml of ^3 H-5-HT (15 to 30 Ci/mM, New England Nuclear France)
The incubation is brought to an end by rapid filtration through GF/B filters and rinsing with 3 times 3 ml of ice-cold buffer, using a harvester manufactured by Brandel which makes it possible to filter 48 samples. The filters are introduced into vials containing 4 ml of emulsifier-safe liquid scintillant (Packard) and the radioactivity measured with a Tri-carb 4640 counter (Packard).
The IC50 (concentration which inhibits the specific affinity by 50%) is determined graphically.

5-HT1A = target: T1, 5-HT1A (Rattus norvegicus, UniProt P19327); experiment: 5-HT1A receptor binding (Peroutka); conditions: rat frontal cortex (title of cited method); mean; read-out: IC50 5-HT1A mean
T1 construct: from tissue; host or cells: rat frontal cortex
T1 sequence (P19327 1-422): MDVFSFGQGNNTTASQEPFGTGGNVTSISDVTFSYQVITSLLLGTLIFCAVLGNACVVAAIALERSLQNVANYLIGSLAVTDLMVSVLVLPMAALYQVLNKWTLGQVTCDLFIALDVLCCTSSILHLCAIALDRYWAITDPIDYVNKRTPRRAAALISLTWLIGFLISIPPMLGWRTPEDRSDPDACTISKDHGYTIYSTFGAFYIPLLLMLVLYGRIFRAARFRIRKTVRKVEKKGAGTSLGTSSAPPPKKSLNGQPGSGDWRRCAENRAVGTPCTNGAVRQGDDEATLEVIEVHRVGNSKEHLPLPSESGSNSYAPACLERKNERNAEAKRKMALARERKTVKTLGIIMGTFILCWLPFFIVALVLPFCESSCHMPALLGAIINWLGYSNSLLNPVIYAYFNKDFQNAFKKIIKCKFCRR
Protocol: (§1) The IC50 values of the various products which form part of this invention for the other receptors were measured according to the techniques described in the following references:
(§2) Peroutka S. J. Pharmacological differentiation and characterization of 5-HT1A, 5-HT1B and 5-HT1C binding sites in rat frontal cortex. J. Neurochem., 45, 529-540, 1986.

D2-Dopaminergic receptor = target: T2, D2-Dopaminergic receptor (Canis lupus familiaris, UniProt Q9GJU1); experiment: D2-Dopaminergic receptor binding (Nisnik et al.); conditions: 3H-YM-09159-2 (title of cited method); read-out: IC50 D2
T2 construct: from tissue
Protocol: as §1
Nisnik H. B., Grigoriadis D. E., Pri-Bar I., Buckman O. and Seeman P. Dopamine D2 receptors selectively labeled by a benzamide neuroleptic: ^3 H-YM-09159-2 Naunyn-Schmiedeberg's Arch. Pharmacol. 329, 333-343, 1985.

α1-Adrenergic receptor = α1-Adrenergic receptor binding (Leslie Morrow and Creese); conditions: rat brain (title of cited method)
Protocol: as §1
Leslie Morrow A. and Creese I. Characterization of α1-adrenergic receptor subtypes in rat brain: a reevaluation of ^3 H-WB4101 and ^3 H prazosin binding. Mol. Pharmacol. 29, 321-330, 1986.

α2-Adrenergic receptor = target: T3, α2-Adrenergic receptor (Rattus norvegicus, UniProt P22909); experiment: α2-Adrenergic receptor binding (Mallard et al.); conditions: rat brain (title of cited method); read-out: IC50 α2
T3 construct: in the rat brain; from tissue; host or cells: rat brain
T3 sequence (P22909 1-465): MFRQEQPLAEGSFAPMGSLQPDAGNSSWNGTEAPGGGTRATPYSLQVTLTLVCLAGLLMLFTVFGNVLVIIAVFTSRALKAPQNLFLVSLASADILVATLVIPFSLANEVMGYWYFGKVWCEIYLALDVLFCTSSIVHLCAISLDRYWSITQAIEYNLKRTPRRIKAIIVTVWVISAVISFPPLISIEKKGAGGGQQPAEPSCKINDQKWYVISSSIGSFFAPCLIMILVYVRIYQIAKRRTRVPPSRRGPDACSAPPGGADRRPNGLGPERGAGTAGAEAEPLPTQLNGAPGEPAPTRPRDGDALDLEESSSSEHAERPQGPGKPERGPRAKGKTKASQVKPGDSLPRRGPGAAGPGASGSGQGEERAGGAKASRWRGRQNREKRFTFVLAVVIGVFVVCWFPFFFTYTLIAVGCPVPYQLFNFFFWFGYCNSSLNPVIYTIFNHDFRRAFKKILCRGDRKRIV
Protocol: as §1
Mallard N. J., Tyacke R., Hudson A. L. and Nutt D. S. Comparative binding studies of ^3 -idazoxan and ^3 -RX821002 in the rat brain. Brit. J. Pharmacol. 102, 221P, 1991.

5-HT1B = target: T4, 5-HT1B (Rattus norvegicus, UniProt P28564); experiment: 5-HT1B receptor binding (Peroutka); conditions: rat frontal cortex (title of cited method); mean; read-out: IC50 5-HT1B mean
T4 construct: from tissue; host or cells: rat frontal cortex
Protocol: as §1, §2

5-HT1C = target: T5, 5-HT1C (Sus scrofa, UniProt K7GSR7); experiment: 5-HT1C receptor binding (Pazos et al.); parameters: species or system porcine; conditions: porcine choroid plexus (title of cited method); read-out: IC50 5-HT1C
T5 construct: serotonergic ligands to the porcine choroid plexus; from tissue; host or cells: porcine choroid plexus
T5 sequence (K7GSR7 1-457): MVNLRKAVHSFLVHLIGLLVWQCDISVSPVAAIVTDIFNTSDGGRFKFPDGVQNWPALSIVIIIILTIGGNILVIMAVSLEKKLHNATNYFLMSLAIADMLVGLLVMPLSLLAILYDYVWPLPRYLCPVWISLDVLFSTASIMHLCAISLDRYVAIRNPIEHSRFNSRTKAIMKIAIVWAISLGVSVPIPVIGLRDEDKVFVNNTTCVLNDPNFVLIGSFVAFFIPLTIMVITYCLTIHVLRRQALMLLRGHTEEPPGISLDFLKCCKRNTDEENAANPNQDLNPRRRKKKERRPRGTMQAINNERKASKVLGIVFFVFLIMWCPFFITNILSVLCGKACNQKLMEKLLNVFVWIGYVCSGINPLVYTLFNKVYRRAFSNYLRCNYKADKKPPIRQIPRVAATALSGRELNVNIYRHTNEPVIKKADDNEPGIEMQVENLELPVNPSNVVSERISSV
Protocol: as §1
Pazos A., Hoyer D. and Palacios J. M. The binding sites of serotonergic ligands to the porcine choroid plexus: characterization of a new type of serotonin recognition site. Eur. J. Pharmacol., 106, 539-546, 1985.

5-HT2 = target: T6, 5-HT2 (Rattus norvegicus, UniProt P14842); experiment: 5-HT2 receptor binding (Leysen et al.); conditions: 3H-ketanserine (title of cited method)
T6 construct: from tissue
Protocol: as §1
Leysen J. E., Niemegeers C. J. E., Van Nueten J. M. and Laduron P.M. ^3 H-ketanserine (R 41468), a selective ^3 H ligand for serotonin2 receptor binding sites. Mol. Pharmacol., 21, 301-330, 1982.

T2 sequence (Q9GJU1 whole entry): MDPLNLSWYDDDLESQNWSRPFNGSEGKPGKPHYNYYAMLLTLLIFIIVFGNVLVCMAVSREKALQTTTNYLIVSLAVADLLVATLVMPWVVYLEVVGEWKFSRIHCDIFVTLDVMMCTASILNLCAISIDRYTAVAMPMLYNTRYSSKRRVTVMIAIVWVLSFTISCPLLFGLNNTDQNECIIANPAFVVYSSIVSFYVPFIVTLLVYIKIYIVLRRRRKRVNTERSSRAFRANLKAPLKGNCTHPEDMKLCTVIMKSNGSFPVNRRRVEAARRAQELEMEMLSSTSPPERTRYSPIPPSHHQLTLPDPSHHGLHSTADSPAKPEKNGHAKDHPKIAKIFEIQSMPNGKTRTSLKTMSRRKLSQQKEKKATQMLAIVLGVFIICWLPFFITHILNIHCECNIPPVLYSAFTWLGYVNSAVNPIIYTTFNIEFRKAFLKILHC
T6 sequence (P14842 whole entry): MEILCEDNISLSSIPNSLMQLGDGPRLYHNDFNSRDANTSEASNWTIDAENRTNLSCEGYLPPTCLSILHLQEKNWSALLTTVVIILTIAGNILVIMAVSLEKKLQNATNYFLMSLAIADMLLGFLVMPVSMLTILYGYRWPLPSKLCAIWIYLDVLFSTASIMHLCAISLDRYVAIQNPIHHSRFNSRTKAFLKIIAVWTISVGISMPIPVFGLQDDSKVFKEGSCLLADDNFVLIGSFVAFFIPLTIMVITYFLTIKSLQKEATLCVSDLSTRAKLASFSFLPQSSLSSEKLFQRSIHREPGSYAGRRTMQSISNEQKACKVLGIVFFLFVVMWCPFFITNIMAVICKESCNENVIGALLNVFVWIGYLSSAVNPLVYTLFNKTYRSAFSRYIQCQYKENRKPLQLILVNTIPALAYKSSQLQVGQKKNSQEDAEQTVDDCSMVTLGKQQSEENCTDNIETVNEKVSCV
T4 sequence (P28564 whole entry): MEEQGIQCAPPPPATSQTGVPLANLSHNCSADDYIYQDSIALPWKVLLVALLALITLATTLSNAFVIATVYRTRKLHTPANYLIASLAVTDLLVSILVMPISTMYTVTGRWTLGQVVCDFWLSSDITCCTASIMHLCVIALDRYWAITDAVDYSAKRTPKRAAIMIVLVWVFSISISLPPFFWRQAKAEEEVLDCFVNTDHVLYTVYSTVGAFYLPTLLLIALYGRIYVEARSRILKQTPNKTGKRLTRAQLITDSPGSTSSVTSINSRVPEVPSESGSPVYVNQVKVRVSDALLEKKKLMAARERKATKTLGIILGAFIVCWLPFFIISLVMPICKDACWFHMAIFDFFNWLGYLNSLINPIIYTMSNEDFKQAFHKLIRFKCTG

In the case of `NCCc1c[nH]c2ccc(OC(C(=O)N3CCN(c4cccc5ccccc45)CC3)c3ccccc3)cc12` (stereo not drawn) [Example 10, 4-Naphthyl-1-[tryptamine-5-O-(α-phenylcarboxymethyl)]piperazide hydrochloride], the “Ratio 1A/1D” value (5-HT1D) is reported as 0.7, the IC50 (5-HT1A) is reported as 0.465 µM and the IC50 (D2-Dopaminergic receptor) is reported as greater than 1 µM. For the same compound, the IC50 (α1-Adrenergic receptor) was greater than 1 µM, the IC50 (α2-Adrenergic receptor) was greater than 1 µM and the IC50 (5-HT1B) was 0.335 µM. For the same compound, the IC50 (5-HT1C) was greater than 1 µM and the IC50 (5-HT2) was greater than 1 µM.
